In the CheMixHub viscosity set:
± gives the uncertainty stated by the source.

Assay: xn = mol fraction of the nth substance listed

Oc1cccc(O)c1O + C[N+](C)(C)CCO.[Cl-]
viscosity [mPa·s], 101.3 kPa
Conditions	293.15 K	298.15 K	303.15 K	308.15 K	313.15 K	318.15 K	323.15 K
x2 = 0.333	6400 ± 630	4850 ± 460	3200 ± 280	2000 ± 160	1250 ± 93	800 ± 54	600 ± 37
x2 = 0.5	6100 ± 600	3750 ± 340	2500 ± 210	1500 ± 120	1000 ± 71	750 ± 50	500 ± 31

Oc1cccc(O)c1 + CCCO
viscosity [mPa·s], 101 kPa
Conditions	293.15 K	303.15 K	323.15 K
x1 = 0.07	3.605 ± 0.022	–	1.675 ± 0.011
x1 = 0.28	–	12.05 ± 0.064	–

NCCNCCN + CCCCCCCCO
viscosity [mPa·s], 101 kPa
Conditions	298.15 K	303.15 K	308.15 K
x1 = 0.0574	8.191 ± 0.18	6.649 ± 0.15	5.637 ± 0.12
x1 = 0.1135	8.77 ± 0.19	7.063 ± 0.16	5.975 ± 0.13
x1 = 0.1584	9.103 ± 0.2	7.248 ± 0.16	6.111 ± 0.14
x1 = 0.2	9.198 ± 0.2	7.3 ± 0.16	6.14 ± 0.14
x1 = 0.2521	9.202 ± 0.2	7.268 ± 0.16	6.096 ± 0.14
x1 = 0.311	9.044 ± 0.2	7.129 ± 0.16	5.957 ± 0.13
x1 = 0.4024	8.532 ± 0.19	6.792 ± 0.15	5.691 ± 0.13
x1 = 0.5076	7.72 ± 0.17	6.264 ± 0.14	5.244 ± 0.12
x1 = 0.6106	6.988 ± 0.15	5.798 ± 0.13	4.877 ± 0.11
x1 = 0.7085	6.366 ± 0.14	5.286 ± 0.12	4.493 ± 0.098
x1 = 0.8064	6.017 ± 0.13	4.915 ± 0.11	4.228 ± 0.092
x1 = 0.8556	5.901 ± 0.13	4.791 ± 0.11	4.101 ± 0.089
x1 = 0.9033	5.791 ± 0.13	4.679 ± 0.1	3.999 ± 0.087
x1 = 0.9524	5.699 ± 0.13	4.584 ± 0.1	3.889 ± 0.085

CCCCC(=O)O + CCCCCCO
viscosity [mPa·s], 100 kPa
Conditions	x1 = 0.0922	x1 = 0.1786	x1 = 0.2643	x1 = 0.3791	x1 = 0.4723	x1 = 0.5917	x1 = 0.6782	x1 = 0.7647	x1 = 0.8655	x1 = 0.9463
293.15 K	5.13 ± 0.08	4.89 ± 0.08	4.64 ± 0.08	4.3 ± 0.08	4 ± 0.08	3.61 ± 0.08	3.33 ± 0.08	3.04 ± 0.08	2.7 ± 0.08	2.43 ± 0.08
303.15 K	3.78 ± 0.08	3.63 ± 0.08	3.47 ± 0.08	3.24 ± 0.08	3.04 ± 0.08	2.79 ± 0.08	2.6 ± 0.08	2.4 ± 0.08	2.17 ± 0.08	1.99 ± 0.08
313.15 K	2.84 ± 0.08	2.74 ± 0.08	2.63 ± 0.08	2.49 ± 0.08	2.36 ± 0.08	2.18 ± 0.08	2.06 ± 0.08	1.93 ± 0.08	1.78 ± 0.08	1.65 ± 0.08
323.15 K	2.18 ± 0.08	2.11 ± 0.08	2.03 ± 0.08	1.93 ± 0.08	1.85 ± 0.08	1.74 ± 0.08	1.66 ± 0.08	1.57 ± 0.08	1.48 ± 0.08	1.4 ± 0.08

C[C@H](CCC(=O)[O-])[C@H]1CC[C@H]2[C@@H]3[C@H](O)C[C@@H]4C[C@H](O)CC[C@]4(C)[C@H]3C[C@H](O)[C@]12C.[Na+] + O
viscosity [mPa·s], 101 kPa
Conditions	x1 = 4.223e-05	x1 = 8.385e-05	x1 = 0.0001682	x1 = 0.0003376	x1 = 0.0004225	x1 = 0.0005082	x1 = 0.0006801	x1 = 0.0008535
293.15 K	–	–	–	–	–	–	1.082 ± 0.007	1.105 ± 0.007
298.15 K	–	0.8984 ± 0.0057	–	0.9231 ± 0.0058	–	0.9405 ± 0.0059	0.9598 ± 0.006	0.9782 ± 0.0061
303.15 K	0.801 ± 0.0051	0.8044 ± 0.0051	0.8115 ± 0.0052	0.8262 ± 0.0053	0.8337 ± 0.0053	–	0.8579 ± 0.0054	0.875 ± 0.0055
308.15 K	–	0.7264 ± 0.0047	0.7329 ± 0.0048	0.7454 ± 0.0048	0.7527 ± 0.0049	0.7593 ± 0.0049	0.774 ± 0.005	0.7887 ± 0.0051
313.15 K	–	–	–	0.6763 ± 0.0045	0.6826 ± 0.0045	–	0.7016 ± 0.0046	0.7154 ± 0.0047

NCCNCCN + O
viscosity [mPa·s], 101 kPa
Conditions	293.15 K	298.15 K	303.15 K	313.15 K	323.15 K
x1 = 0.0425	–	2.44 ± 0.73	2.06 ± 0.62	1.55 ± 0.47	1.23 ± 0.37
x1 = 0.0565	–	–	–	–	1.615 ± 0.066
x1 = 0.0568	–	3.46 ± 1	2.88 ± 0.87	2.07 ± 0.62	1.6 ± 0.48
x1 = 0.1	11.17 ± 1.6	–	7.2 ± 0.81	4.78 ± 0.46	3.41 ± 0.29
x1 = 0.1999	48.86 ± 3.1	–	24.8 ± 1.6	14.08 ± 0.88	8.54 ± 0.53
x1 = 0.2999	61.11 ± 3.7	–	30.19 ± 1.8	16.63 ± 1	10.2 ± 0.62
x1 = 0.3997	44.08 ± 2.7	–	23.49 ± 1.4	13.62 ± 0.83	8.35 ± 0.51
x1 = 0.4997	29.78 ± 1.9	–	16.66 ± 1	10.31 ± 0.64	6.79 ± 0.42
x1 = 0.5997	20.36 ± 1.3	–	12.11 ± 0.75	7.77 ± 0.48	5.28 ± 0.32
x1 = 0.6996	14.64 ± 0.91	–	9.24 ± 0.57	6.17 ± 0.38	4.22 ± 0.26
x1 = 0.7992	10.95 ± 0.68	–	–	4.9 ± 0.3	3.55 ± 0.22
x1 = 0.8073	–	–	–	–	3.445 ± 0.14
x1 = 0.8954	8.515 ± 0.34	–	–	–	–
x1 = 0.8989	8.48 ± 0.52	–	5.52 ± 0.34	4.11 ± 0.25	3.03 ± 0.18

[F-].[K+] + O
Conditions	viscosity [mPa·s]
298.15 K, 100 kPa, x1 = 0.02	1.005 ± 0.03
298.15 K, 100 kPa, x1 = 0.03	1.133 ± 0.034
298.15 K, 100 kPa, x1 = 0.07	1.53 ± 0.045
298.15 K, 100 kPa, x1 = 0.1	2.16 ± 0.064
298.15 K, 100 kPa, x1 = 0.2	3.23 ± 0.096
303.15 K, 101 kPa, x1 = 0.002	0.808 ± 0.007
303.15 K, 101 kPa, x1 = 0.005	0.828 ± 0.007
303.15 K, 101 kPa, x1 = 0.009	0.849 ± 0.008
308.15 K, 101 kPa, x1 = 0.002	0.735 ± 0.007
308.15 K, 101 kPa, x1 = 0.005	0.754 ± 0.007
308.15 K, 101 kPa, x1 = 0.009	0.778 ± 0.007
313.15 K, 101 kPa, x1 = 0.005	0.687 ± 0.006
313.15 K, 101 kPa, x1 = 0.009	0.709 ± 0.007
318.15 K, 101 kPa, x1 = 0.005	0.632 ± 0.006
318.15 K, 101 kPa, x1 = 0.009	0.651 ± 0.006
323.15 K, 100 kPa, x1 = 0.02	0.5955 ± 0.018
323.15 K, 100 kPa, x1 = 0.03	0.7039 ± 0.021
323.15 K, 100 kPa, x1 = 0.07	0.9529 ± 0.029
323.15 K, 100 kPa, x1 = 0.1	1.35 ± 0.04
323.15 K, 100 kPa, x1 = 0.2	2.021 ± 0.06

Oc1cccc2ccccc12 + CCCCO
viscosity [mPa·s], 101 kPa
Conditions	x1 = 0.04	x1 = 0.08	x1 = 0.12	x1 = 0.16	x1 = 0.2
293.15 K	3.278 ± 0.073	3.6 ± 0.08	3.953 ± 0.087	4.407 ± 0.097	4.888 ± 0.11
303.15 K	2.489 ± 0.057	2.719 ± 0.062	2.974 ± 0.067	3.265 ± 0.073	3.61 ± 0.08
313.15 K	1.952 ± 0.045	2.106 ± 0.049	2.289 ± 0.052	2.512 ± 0.057	2.745 ± 0.062
323.15 K	1.56 ± 0.038	1.685 ± 0.04	1.816 ± 0.043	1.966 ± 0.046	2.14 ± 0.049
